Values after ≈ are worked out from the molar mass of the structure shown.
Key:
bacteria = assay: Antibacterial activity, stated in words; assay type: cell-based
[1] = system: Pseudomonas aeruginosa PAM 1020; assay: MIC broth microdilution, P. aeruginosa PAM 1020 (wild type); assay type: cell-based; conditions: for MIC (μg/ml) Broth microdilution: P. aeruginosa PAM 1020
[2] = system: Pseudomonas aeruginosa PAM 1154; assay: MIC broth microdilution, P. aeruginosa PAM 1154 (OprM::Hg); assay type: cell-based; conditions: for MIC (μg/ml) Broth microdilution: P. aeruginosa PAM 1154 OprM::Hg
[3] = system: Escherichia Coli MC 4100 AcrAB; assay: MIC broth microdilution, E. coli MC 4100 AcrAB (ΔAcrAB); assay type: cell-based; conditions: for MIC (μg/ml) Broth microdilution: E. coli AcrAB
[4] = system: Pseudomonas aeruginosa PAM 1135; assay: MIC broth microdilution, P. aeruginosa PAM 1135 (high level UPA resistance); assay type: cell-based; conditions: for MIC (μg/ml) Broth microdilution: P. aeruginosa PAM 1135 UPA1^r
Escherichia Coli MC 4100 = assay: MIC broth microdilution, E. coli MC 4100 (wild type); assay type: cell-based; conditions: for MIC (μg/ml) Broth microdilution: E. coli MC 4100
[5] = system: Staphylococcus aureus ATCC 29213; assay: MIC broth microdilution, S. aureus ATCC 29213 (wild type); assay type: cell-based; conditions: for MIC (μg/ml) Broth microdilution: S. aureus ATCC 29213
[6] = system: Escherichia Coli MC 4100 AcrAB UPA3r; assay: MIC broth microdilution, E. coli MC 4100 AcrAB UPA3r (ΔAcrAB, UPA resistant); assay type: cell-based; conditions: for MIC (μg/ml) Broth microdilution: E. coli AcrAB UPA3^r
[7] = system: Staphylococcus aureus 8325-4; assay: MIC broth microdilution, S. aureus 8325-4 (wild type); assay type: cell-based; conditions: for MIC (μg/ml) Broth microdilution: S. aureus 8325-4
[8] = system: Pasteurella multocida pm002; assay: MIC broth microdilution, P. multocida pm002 (wild type); assay type: cell-based
[9] = system: Mycobacterium fortuitum ATCC 6841; assay: MIC broth microdilution, M. fortuitum ATCC 6841; conditions: 72 hours at 35° C., CAMHB
[10] = system: Mycobacterium tuberculosis H37Rv; assay: MIC agar dilution, M. tuberculosis H37Rv; assay type: cell-based
[11] = system: Pseudomonas aeruginosa PAM 1323; assay: MIC broth microdilution, P. aeruginosa PAM 1323 (medium level UPA resistance); assay type: cell-based
[12] = system: Mycobacterium smegmatis ATCC 19420; assay: MIC broth microdilution, M. smegmatis ATCC 19420; conditions: 72 hours at 35° C., CAMHB
[13] = system: Mycobacterium tuberculosis TN913; assay: MIC agar dilution, M. tuberculosis TN913; assay type: cell-based
E. coli translocase = E. coli translocase (Escherichia coli, UniProt P0A6W3)
[14] = system: mammalian enzymes that catalyze the formation of lipid-linked saccharides; conditions: background statement; cited from earlier work
[15] = target: bacterial translocase I (phospho-N-acetylmuramyl-pentapeptide translocase) (Escherichia coli, UniProt P0A6W3); conditions: background statement; cited from earlier work
bacterial translocase I (phospho-N-acetylmuramyl-pentapeptide translocase), sequence (P0A6W3 whole entry): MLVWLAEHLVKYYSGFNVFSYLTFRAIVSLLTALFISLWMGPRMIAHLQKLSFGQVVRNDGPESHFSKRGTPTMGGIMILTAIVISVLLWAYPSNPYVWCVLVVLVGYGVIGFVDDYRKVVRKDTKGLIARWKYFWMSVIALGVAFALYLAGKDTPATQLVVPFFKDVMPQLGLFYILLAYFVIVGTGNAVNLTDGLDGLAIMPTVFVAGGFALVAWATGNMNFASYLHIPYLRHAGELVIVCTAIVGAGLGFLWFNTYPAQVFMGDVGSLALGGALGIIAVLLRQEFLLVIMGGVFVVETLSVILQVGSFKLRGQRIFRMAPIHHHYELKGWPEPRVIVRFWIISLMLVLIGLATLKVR

E. coli translocase, sequence (P0A6W3 whole entry): as above

Compound	MIC (μg/ml) Broth microdilution [8] [µg/mL]	MIC Broth microdilution M. fortuitum ATCC 6841 [9] [mg/L]	MIC (μg/ml) Broth microdilution [1] [µg/mL]	MIC H37RV (SENSITIVE) [10] [mg/L]	MIC (μg/ml) Broth microdilution [2] [µg/mL]	MIC (μg/ml) Broth microdilution [11] [µg/mL]	MIC (μg/ml) Broth microdilution [3] [µg/mL]	MIC (μg/ml) Broth microdilution [4] [µg/mL]	MIC (μg/ml) Broth microdilution (Escherichia Coli MC 4100) [µg/mL]	MIC Broth microdilution M. smegmatis ATCC19420 [12] [mg/L]	MIC (μg/ml) Broth microdilution [5] [µg/mL]	MIC TN913 (SENSITIVE) [13] [mg/L]	MIC (μg/ml) Broth microdilution [6] [µg/mL]	MIC (μg/ml) Broth microdilution [7] [µg/mL]	also measured
C[C@H](N)C(=O)N(C)[C@@H](C)[C@H](NC(=O)[C@H](C)NC(=O)N[C@@H](Cc1c[nH]c2ccccc12)C(=O)O)C(=O)NC[C@H]1C[C@@H](O)[C@H](n2ccc(=O)[nH]c2=O)O1 [Compound 34]	–	–	–	–	–	–	–	–	–	–	–	–	–	–	antibacterial / biological activity (in words) (bacteria): comparable biological activity to dihydropacidamycin D; MIC ([1]; Pseudomonas aeruginosa, PAM1020, read-out: MIC (μg/ml) Broth microdilution): 64 µg/mL (≈ 89.7 µM); MIC ([2]; Pseudomonas aeruginosa, PAM1154, read-out: MIC (μg/ml) Broth microdilution): 4 µg/mL (≈ 5.6 µM); MIC ([3]; Escherichia coli, COLIMC4100ACRAB, read-out: MIC (μg/ml) Broth microdilution): 2 µg/mL (≈ 2.8 µM); MIC ([4]; Pseudomonas aeruginosa, PAM1135, read-out: MIC (μg/ml) Broth microdilution): > 512 µg/mL; MIC (Escherichia Coli MC 4100; Escherichia coli, COLIMC4100, read-out: MIC (μg/ml) Broth microdilution): 128 µg/mL (≈ 179 µM); MIC ([5]; Staphylococcus aureus, ATCC29213, read-out: MIC (μg/ml) Broth microdilution): 512 µg/mL (≈ 717 µM); MIC ([6]; Escherichia coli, read-out: MIC (μg/ml) Broth microdilution): 16 µg/mL (≈ 22.4 µM); MIC ([7]; Staphylococcus aureus, 83254, read-out: MIC (μg/ml) Broth microdilution): > 512 µg/mL
CC(N)C(=O)N(C)C(C)C(NC(=O)C(Cc1ccccc1)NC(=O)NC(Cc1ccc2ccccc2c1)C(=O)O)C(=O)NCC1CC(O)C(n2ccc(=O)[nH]c2=O)O1 [Compound 133, 1-[5′-[(2S,3S)-N^3-L-Alanyl-N^2-[N-[[(1S)-1-carboxy-2-naphthalenethyl]carbamoyl]-L-phenylalanyl]-N^3-methyl-2,3-diaminobutyramido]-3′,5′-dideoxy-α-L-arabinofuranosyl]uracil]	256 (≈ 320 µM)	32 (≈ 40 µM)	64 (≈ 79.9 µM)	30 (≈ 37.5 µM)	32 (≈ 40 µM)	>512	<1	>512	256 (≈ 320 µM)	8 (≈ 9.99 µM)	256 (≈ 320 µM)	30 (≈ 37.5 µM)	32 (≈ 40 µM)	128 (≈ 160 µM)	–
CC(N)C(=O)N(C)C(C)C(NC(=O)C(Cc1ccc(-c2ccccc2)cc1)NC(=O)NC(Cc1c[nH]c2ccccc12)C(=O)O)C(=O)NCC1CC(O)C(n2ccc(=O)[nH]c2=O)O1 [Compound 155, 1-[5′-[(2S,3S)-N^3-L-Alanyl-N^2-[N-[[(1S)-1-carboxy-2-indol-3-ylethyl)carbamoyl]-L-4-biphenylalanyl]-N^3-methyl-2,3-diaminobutyramidol-3′,5′-dideoxy-α-L-arabinofuranosyl]uracil]	32 (≈ 37 µM)	32 (≈ 37 µM)	256 (≈ 296 µM)	10 (≈ 11.5 µM)	64 (≈ 73.9 µM)	256 (≈ 296 µM)	8 (≈ 9.24 µM)	512 (≈ 591 µM)	512 (≈ 591 µM)	4 (≈ 4.62 µM)	>512	10 (≈ 11.5 µM)	512 (≈ 591 µM)	512 (≈ 591 µM)	–
CC(N)C(=O)N(C)C(C)C(NC(=O)C(Cc1ccc(F)cc1)NC(=O)NC(Cc1ccc(O)cc1)C(=O)O)C(=O)NCC1CC(O)C(n2ccc(=O)[nH]c2=O)O1 [Compound 157, 1-[5′-[(2S,3S)-N^3-L-Alanyl-N^2-[N-[[(1S)-1-carboxy-4-hydroxyphenethyl]carbamoyl]-L-4-fluorophenylalanyl]-N^3-methyl-2,3-diaminobutyramido]-3′,5′-dideoxy-α-L-arabinofuranosyl]uracil]	256 (≈ 326 µM)	–	128 (≈ 163 µM)	10 (≈ 12.7 µM)	16 (≈ 20.4 µM)	>512	<1	>512	4 (≈ 5.1 µM)	–	>512	10 (≈ 12.7 µM)	<1	512 (≈ 652 µM)	–
CC(N)C(=O)N(C)C(C)C(NC(=O)C(Cc1ccc(F)cc1)NC(=O)NC(Cc1c[nH]c2ccccc12)C(=O)O)C(=O)NCC1CC(O)C(n2ccc(=O)[nH]c2=O)O1 [Compound 158, 1-[5′-[(2S,3S)-N^3-L-Alanyl-N^2-[N-[[(1S)-1-carboxy-2-indol-3-ylethyl]carbamoyl]-L-4-fluorophenylalanyl]-N^3-methyl-2,3-diaminobutyramidol-3′,5′-dideoxy-α-L-arabinofuranosyl]uracil]	64 (≈ 79.2 µM)	32 (≈ 39.6 µM)	64 (≈ 79.2 µM)	10 (≈ 12.4 µM)	8 (≈ 9.9 µM)	256 (≈ 317 µM)	<1	256 (≈ 317 µM)	512 (≈ 634 µM)	1 (≈ 1.24 µM)	512 (≈ 634 µM)	10 (≈ 12.4 µM)	32 (≈ 39.6 µM)	512 (≈ 634 µM)	–
CC(C)CC(N)C(=O)N(C)C(C)C(NC(=O)C(Cc1ccccc1)NC(=O)NC(Cc1c[nH]c2ccccc12)C(=O)O)C(=O)NCC1CC(O)C(n2ccc(=O)[nH]c2=O)O1 [Compound 159, 1-[5′-[(2S,3S)-N^2-[N-[[(1S)-1-Carboxy-2-indol-3-ylethyl]carbamoyl]-L-phenylalanyl]l-N^3-L-leucyl-N^3-methyl-2,3-diaminobutyramido]-3′,5′-dideoxy-α-L-arabinofuranosyl]uracil]	128 (≈ 154 µM)	64 (≈ 76.9 µM)	128 (≈ 154 µM)	30 (≈ 36.1 µM)	8 (≈ 9.62 µM)	256 (≈ 308 µM)	2 (≈ 2.4 µM)	256 (≈ 308 µM)	>512	8 (≈ 9.62 µM)	>512	30 (≈ 36.1 µM)	64 (≈ 76.9 µM)	>512	–
CC(N)C(=O)N(C)C(C)C(NC(=O)C(Cc1ccccc1)NC(=O)NC(Cc1c[nH]c2ccccc12)C(=O)O)C(=O)NCC1CC(O)C(n2ccc(=O)[nH]c2=O)O1 [Compound 164, 1-[5′-[(2S,3S)-N^3-L-Alanyl-N^2-[N-[[(1S)-1-carboxy-2-indol-3-ylethyl]carbamoyl]-L-phenylalanyl]-N^3-methyl-2,3-diaminobutyramido]-3′,5′-dideoxy-α-L-arabinofuranosyl]uracil]	128 (≈ 162 µM)	–	16 (≈ 20.3 µM)	10 (≈ 12.7 µM)	4 (≈ 5.06 µM)	256 (≈ 324 µM)	<1	256 (≈ 324 µM)	512 (≈ 648 µM)	–	256 (≈ 324 µM)	10 (≈ 12.7 µM)	64 (≈ 81 µM)	128 (≈ 162 µM)	–
Dihydropacidamycin D [Compound 3]	–	–	16	–	8	–	2	>512	128	–	512	–	32	256	antibacterial / biological activity (in words) (bacteria): displayed the antibacterial spectrum of pacidamycin D; inhibition of E. coli translocase (in words) (E. coli translocase): inhibitor of E. coli translocase
amphomycin [reference compound]	–	–	64	–	4	–	4	512	256	–	>512	–	16	>512	action on mammalian enzymes / lipid-linked saccharide formation (in words) [14]: also target mammalian enzymes; translocase inhibition (in words) [15]: translocase inhibitors
tunicamycin	–	–	–	–	–	–	–	–	–	–	–	–	–	–	action on mammalian enzymes / lipid-linked saccharide formation (in words) [14]: also target mammalian enzymes; translocase inhibition (in words) [15]: translocase inhibitors

From patent US6482921B1, “Uridyl peptide antibiotic (UPA) derivatives, their synthesis and use” (Essential Therapeutics, Inc., priority 1999, dated 2002)
